According to patent publication EP2108954A1, “A test system for detecting intracellular cyclic nucleotide level and methods and uses thereof” (Max-Planck-Gesellschaft zur Förderung der Wissenschaften …, priority 2008, dated 2009):
Where “and” joins values, the source holds several entries; their conditions need not be identical. Identical values can stand only once.

Columns and labels:
Or47a and Or83b = target: T1, Or47a and Or83b (Drosophila melanogaster, UniProt P81921+Q9VNB5); assay: Whole-cell patch-clamp of HEK293 cells expressing Or47a and Or83b; assay type: cell-based; conditions: 100 µM; -100 mV (Fig. 7)
T1 construct: expressed in transfected cells; host or cells: HEK293
T1 sequence (P81921 1-385): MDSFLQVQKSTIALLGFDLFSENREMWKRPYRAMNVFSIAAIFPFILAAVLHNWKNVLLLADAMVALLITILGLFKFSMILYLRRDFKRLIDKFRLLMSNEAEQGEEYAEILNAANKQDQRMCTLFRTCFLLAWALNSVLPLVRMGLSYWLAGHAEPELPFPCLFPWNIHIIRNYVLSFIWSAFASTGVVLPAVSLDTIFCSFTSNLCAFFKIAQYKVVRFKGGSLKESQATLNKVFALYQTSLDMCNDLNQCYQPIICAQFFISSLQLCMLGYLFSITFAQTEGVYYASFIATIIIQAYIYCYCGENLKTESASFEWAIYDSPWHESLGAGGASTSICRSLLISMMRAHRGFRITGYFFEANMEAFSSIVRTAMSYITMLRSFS
T1 sequence (Q9VNB5 1-486): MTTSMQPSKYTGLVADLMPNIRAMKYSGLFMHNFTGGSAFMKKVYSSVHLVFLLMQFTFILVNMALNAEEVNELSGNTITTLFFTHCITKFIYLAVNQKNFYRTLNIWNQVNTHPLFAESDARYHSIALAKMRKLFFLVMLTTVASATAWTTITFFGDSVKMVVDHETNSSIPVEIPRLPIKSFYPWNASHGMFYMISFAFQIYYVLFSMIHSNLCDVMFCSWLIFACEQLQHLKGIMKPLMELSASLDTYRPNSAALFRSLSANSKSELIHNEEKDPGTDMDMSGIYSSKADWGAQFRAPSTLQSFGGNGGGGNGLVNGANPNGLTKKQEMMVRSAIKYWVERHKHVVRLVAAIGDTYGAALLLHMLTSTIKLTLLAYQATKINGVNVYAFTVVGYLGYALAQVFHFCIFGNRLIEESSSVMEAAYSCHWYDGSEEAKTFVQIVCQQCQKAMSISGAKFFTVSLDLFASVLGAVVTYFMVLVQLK
Description: (§1) In some experiments we transfected cells with pcDNA3-DOR22a-GFP or pcDNA3-DOR83b-GFP alone. We also examined the properties of DOR47a, which was cloned, using standard molecular biology methods into a pcDNA3.1(-) expression vector. To test for putative G-protein coupling, cells were transfected with the respective OR-DNA together with 1.5 µg hHCN2/pcDNA3 (provided by M. Biel, Munich, Germany), with 1 µg hKCNQ4/pcDNA3.1 or with 1 µg hCNGA2/pCMV6-XL4 (Origene, Rockville, MD, USA).
(§2) In brief, ion currents in HEK293 cells were measured at room temperature using whole-cell patch-clamp with appropriate compensation of series resistance and of capacitive currents. Additional experiments were performed in the outside-out configuration. Current measurements and data acquisition were performed using an EPC9 patch-clamp amplifier controlled by PatchMaster software (both HEKA Elektronik, Lambrecht, Germany). Patch-clamp pipettes were fabricated from borosilicate capillaries. Pipettes for whole-cell recordings had resistances of 2-4 MΩ for excised-patch recordings the pipette resistance was up to 15 MΩ.

Or83b [1] = target: T2, Or83b (Drosophila melanogaster, UniProt Q9VNB5); assay: Calcium imaging (fura-2) in HEK293 cells expressing Or83b; assay type: cell-based; parameters: expressed in transfected cells; host or cells: HEK293; conditions: cell expressing Or83b (Fig. 6e)
T2 sequence (Q9VNB5 1-486): T1 sequence (Q9VNB5 1-486)
Description: Free intracellular Ca^2+ concentration ([Ca^2+]i) was determined by fura-2 fluorescence as described (Messutat et al., Cell Calcium 30, 199-211. (2001)). In brief, cells were loaded with fura-2 by incubation in bath solution containing 2 µM fura-2/acetomethylester for 20 min. Free intracellular Ca^2+ concentration ([Ca^2+]i) was determined with the fluorescence ratio method. Excitation of fura-2 at 340 and 380 nm was performed with a monochromator (Polychrome II, T.I.L.L. Photonics, Gräfelfing, Germany) coupled via an epifluorescence condenser into an Axioskop FS microscope (Carl Zeiss, Jena, Germany) with a water immersion objective (LUMPFL 40xW/IR/0.8; Olympus, Hamburg, Germany). […] [Ca^2+]i was calculated according to the equation [Ca^(2 +)]i = Keff (R-Rmin)/(Rmax-R). […] Keff, Rmin, and Rmax were determined using HEK293 cells permeabilized with 2 µM ionomycin and three solutions with different concentrations of free Ca^2+ (Ca^2+ free; 5 mM Ca^2+; 500 nM Ca^2+; the composition of the 500 nM solution was calculated with WEBMAXC v.2.20) (Patton et al., Cell Calcium 35, 427-31 (2004)). […]
Fluorescence images were acquired using a cooled CCD camera controlled by TILLVision 4.0 software (T.I.L.L. Photonics). […] Image pairs were obtained by excitation for 100 ms at 340 nm and 380 nm; background fluorescence was subtracted.

Or83b [2] = target: T2, Or83b; assay: Whole-cell patch-clamp of HEK293 cells expressing Or83b alone; assay type: cell-based; parameters: expressed in transfected cells; host or cells: HEK293
Description: as §1, §2
(§3) To differentiate between ionotropic and metabotropic pathways of receptor activation (Fig. 2a-d) the pipette solution contained either 2 mM ATP plus 2 mM GTP or 2 mM ADP plus 2 mM GDP (both for whole-cell and outside-out configuration). For the preparation of Cl^--free solutions the chloride salts were substituted by gluconate salts. The pipette Cs^+ solution contained (in mM) 140 CsCl, 1 Mg-ATP, 10 EGTA, 10 HEPES (pH = 7.3), and the Cs^+ bath solution contained (in mM) 140 CsCl, 15 glucose, 15 HEPES (pH = 7.4). The Ca^2+-free bath solution contained (in mM) 140 NaCl, 15 glucose, 15 HEPES, and the Na^+-free bath solution contained (in mM) 140 NMDG-Cl, 10 CaCl2, 10 glucose, 15 HEPES.
(§4) With the exception of GDP-γ-S, which was applied via the patch pipette, all substances were applied to the bath using either a bath perfusion system (BPS4 from ALA, New York, USA) or a rapid solution changer (RSC160 from Biologic, Claix, France) which were controlled by the PatchMaster software (HEKA Elektronik).

Or22a and Or83b = target: T3, Or22a and Or83b (Drosophila melanogaster, UniProt P81909+Q9VNB5); assay: Whole-cell patch-clamp of currents in HEK293 cells coexpressing Or22a and Or83b; assay type: cell-based; conditions: absence of Etb; 10 µM benzaldehyde; n = 6
T3 construct: expressed in transfected cells; host or cells: HEK293
T3 sequence (P81909 1-397): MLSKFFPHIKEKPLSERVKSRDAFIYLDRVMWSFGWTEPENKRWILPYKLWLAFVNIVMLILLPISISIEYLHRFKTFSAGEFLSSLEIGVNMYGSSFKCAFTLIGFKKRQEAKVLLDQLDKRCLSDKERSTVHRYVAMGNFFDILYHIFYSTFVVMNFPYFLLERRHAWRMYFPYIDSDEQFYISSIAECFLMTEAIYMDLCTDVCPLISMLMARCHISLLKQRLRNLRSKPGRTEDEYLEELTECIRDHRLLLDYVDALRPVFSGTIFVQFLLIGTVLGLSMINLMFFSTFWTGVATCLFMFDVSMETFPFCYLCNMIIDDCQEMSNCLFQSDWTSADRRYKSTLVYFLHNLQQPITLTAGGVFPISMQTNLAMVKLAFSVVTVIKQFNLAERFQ
T3 sequence (Q9VNB5 1-486): T1 sequence (Q9VNB5 1-486)
Description: as §1, §2, §3, §4

[3] = tested on: modified cyclic nucleotide-gated ion channels; conditions: US 07166463 and US 07341836; cited from earlier work
Or83b [4] = target: T2, Or83b; assay: cell-based; conditions: -60 mV, n = 10
Description: For this, HEK293 cells were cultured at a density of ∼2*10^4 per 35-mm dish and transfected with 1 µg pcDNA3-DOR83b-GFP (Neuhaus et al., Nat Neurosci 8: 15-17, 2005.) using Roti-Fect transfection kit (Roth, Karlsruhe, Germany). For electrophysiological experiments we only used cells showing GFP fluorescence (when illuminated at 470 nm) as indicator of putative OR expression.
For electrophysiological studies, ion currents in HEK293 cells were measured at room temperature in the inside-out configuration. Current measurements and data acquisition were performed using an EPC9 patch-clamp amplifier controlled by PatchMaster software (both HEKA Elektronik, Lambrecht, Germany). Patch-clamp pipettes were fabricated from borosilicate capillaries. Pipettes for whole-cell recordings had resistances of up to 15 MΩ. The bath solution contained (in mM) 140 KCI, 4 NaCl, 2.2 CaCl2, 2 Mg-ATP, 0.05 Na-GTP, 5 EGTA, 10 HEPES (pH 7.3), and the pipette solution contained (in mM) 135 NaCl, 5 KCI, 1 CaCl2, 1 MgCl2, 10 HEPES, 10 glucose (pH 7.4).

vertebrate CNGA2 channel = target: T4, vertebrate CNGA2 channel (Rattus norvegicus, UniProt Q00195); conditions: Dhallan et al., Nature 347 (1990); cited from earlier work
T4 sequence (Q00195 1-664): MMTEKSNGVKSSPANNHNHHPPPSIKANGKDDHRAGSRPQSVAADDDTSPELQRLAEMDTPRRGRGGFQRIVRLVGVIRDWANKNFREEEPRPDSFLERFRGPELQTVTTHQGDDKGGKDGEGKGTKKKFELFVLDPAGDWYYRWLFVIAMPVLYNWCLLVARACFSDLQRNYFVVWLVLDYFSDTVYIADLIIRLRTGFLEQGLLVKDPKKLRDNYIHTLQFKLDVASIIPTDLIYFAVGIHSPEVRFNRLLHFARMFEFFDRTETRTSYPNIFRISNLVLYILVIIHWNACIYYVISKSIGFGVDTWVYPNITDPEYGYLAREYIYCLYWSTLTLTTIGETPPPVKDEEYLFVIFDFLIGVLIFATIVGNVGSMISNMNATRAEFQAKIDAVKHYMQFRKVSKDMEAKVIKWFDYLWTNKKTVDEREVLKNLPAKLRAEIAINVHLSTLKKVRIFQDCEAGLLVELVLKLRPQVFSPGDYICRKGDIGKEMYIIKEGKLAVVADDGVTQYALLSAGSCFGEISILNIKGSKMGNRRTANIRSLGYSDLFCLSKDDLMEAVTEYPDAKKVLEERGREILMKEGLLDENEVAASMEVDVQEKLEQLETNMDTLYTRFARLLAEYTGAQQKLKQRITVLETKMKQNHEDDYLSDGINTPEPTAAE

[5] = target: Periplaneta adipokinetic hormone receptor (pAKHR) (Periplaneta); assay: cell-based or functional assay

## Nc1nc2c(nc(Br)n2[C@@H]2O[C@@H]3COP(=O)(O)O[C@H]3[C@H]2O)c(=O)[nH]1 [8-bromo-cGMP]
Or47a and Or83b
  current response of cells: responsive
Or83b [1]
  agonist comparison for the elevation of [Ca^2+]i: significantly better agonist than 8-bromo-cAMP
Or83b [2]; Or83b-expressing HEK293 cells
  current elicited: elicited a current similar to that obtained upon 8-bromo-cAMP application
Or83b [2]; concentration-response relations, -100 mV (Fig. 6d)
  agonist comparison for current activation: significantly better agonist than 8-bromo-cAMP

## O=Cc1ccccc1 [Bea, benzaldehyde]
Or22a and Or83b
  effect on current recorded under control conditions: reduced the current recorded under control conditions

## CCCCCCOC(=O)C1(O)CC2OC1(C)n1c3ccccc3c3c4c(c5c6ccccc6n2c5c31)C(=O)NC4 (stereo not drawn) [KT5720]
Or83b [2]; 10 µM, n = 6
  effect of preincubation on ion currents elicited by 8-bromo-cAMP: not significantly altered

## CCCCCOC(C)=O [PA, pentyl acetate]
Or47a and Or83b
  current response of cells: responding

## Nc1ncnc2c1ncn2[C@@H]1O[C@@H]2COP(=O)(O)O[C@H]2[C@H]1O [cAMP, 3'-5'-cyclic adenosine monophosphate]
[3]
  EC50: 14500 nM
Or83b [4]
  Hill coefficient of mean currents of inside-out patches: 0.42
Or83b [4]; EC50 of mean currents of inside-out patches
  EC50: 1 nM and 1.1 nM

## Nc1nc2c(ncn2[C@@H]2O[C@@H]3COP(=O)(O)O[C@H]3[C@H]2O)c(=O)[nH]1 [cGMP, cyclic guanosine monophosphate]
Vertebrate CNGA2 channel
  EC50: 1000 nM

## adipokinetic hormone I (AKH I) (peptide)
[5]
  membrane current at -100 mV (whole-cell patch clamp, ramp protocol) in HEK293 cells coexpressing pAKHR and the cAMP-activated channel Or83b, after application of AKH I: 294 pA
